Assay results reported in US8633227B2, “Synthesis and novel salt forms of (R)-3-((E)-pyrrolidin-3-yl)vinyl)-5-tetrahydropyran-4-yloxy)pyridine” (priority 2008, dated 2014).

Columns and labels:
Preliminary salt screen = type: physicochemical; details: equi-millimolar base and acid, 2-propanol or acetonitrile, alternative solvents
Experimental: Test tubes (4 mL), provided with magnetic stir bars, were charged with equi-milimolar amounts of (R)-3-((E)-2-(pyrrolidin-3-yl)vinyl)-5-(tetrahydropyran-4-yloxy)pyridine base and the acid of interest (neat) and dissolved with 500 μL of either 2-propanol or acetonitrile with the aid of heat.
If no precipitation occurred, the solvent was evaporated under a nitrogen stream with moderate heating and an alternative solvent was tried. Alternative solvents included acetone, ethyl acetate, isopropyl acetate, absolute ethanol, acetonitrile, hexane, tert-butanol, tert-butyl acetate, and blends thereof.
The use of alcohols was avoided in the case of sulfonic acids.

normal rats = assay: Novel object recognition (NOR) task; type: in vivo, rat; details: for NOR time after dosing with statistically significant effect (out to / up to): 0.004 μmol/kg oral (FIG. 2)
Experimental: Memory was assessed by using a three-trial novel object recognition test (Luine et al., Pharm. Biochem. Behav. 74, 213-220 (2002)). On the first day (exploratory trial), rats were allowed to explore an open arena (44.5×44.5×30.5 cm) for 6 min. On the second day (acquisition trial), rats were allowed to explore the same arena in the presence of two identical objects (both object A) for 3 min. On the third day (retention or recall trial), performance was evaluated by allowing the same animal to re-explore the arena for 3 min in the presence of two different objects: the familiar object A and a novel object B. An inter-trial interval of 24 h was imposed between the three NOR trials. Recognition memory was assessed by comparing the time spent exploring a novel (object B) versus a familiar (object A) object during the recall trial. Recognition index was assessed for each animal and expressed as a ratio ((time B/time A+time B)×100).
(R)-3-((E)-2-(Pyrrolidin-3-yl)vinyl)-5-(tetrahydropyran-4-yloxy)pyridine or a salt thereof improved long-term visual episodic/declarative memory as assessed by novel object recognition (NOR) task following oral dosing in normal rats. […] In the two “recall only” sessions; subset of animals were orally dosed with water on day 1 (i.e., exploratory session) and day 2 (i.e., acquisition session) and then orally dosed either with 1.1 μmol/kg (R)-3-((E)-2-(pyrrolidin-3-yl)vinyl)-5-(tetrahydropyran-4-yloxy)pyridine or a salt thereof (left panel) or 0.04 μmol/kg (right panel) on day 3 (i.e., recall session). […] In the Figure, the dashed line at 65% denotes subjective criteria for biological cognitive enhancing activity. *P<0.05.
(R)-3-((E)-2-(Pyrrolidin-3-yl)vinyl)-5-(tetrahydropyran-4-yloxy)pyridine or a salt thereof was evaluated for its duration of effect in the NOR task in normal rats. […] In the Figure, the dashed line at 65% denotes subjective criteria for biological cognitive enhancing activity (*P<0.05).

[1] = parameters: species or system human
Text: Therefore any variation of (R)-3-((E)-2-(pyrrolidin-3-yl)vinyl)-5-(tetrahydropyran-4-yloxy)pyridine or a salt thereof metabolism in human due to CYP polymorphism is expected to be less than 2 fold due to the significant renal clearance and low hepatic clearance.

panel of 65 receptors = assay: Multiple receptor screening assay; type: binding; details: single concentration of 10 μM
Experimental: (R)-3-((E)-2-(Pyrrolidin-3-yl)vinyl)-5-(tetrahydropyran-4-yloxy)pyridine or a salt thereof was tested for selectivity against a panel of 65 receptors.

Row | Compound | Result of preliminary salt screen (physical form obtained) (Preliminary salt screen) | further results
1 | O=C(O)c1ccc2ccccc2c1O [1-Hydroxy-2-naphthoic (Xinafoic)] | brown gum | 
2 | CC(=O)Nc1ccc(C(=O)O)cc1 [4-Acetamidobenzoic] | oil | 
3 | O=C(O)c1ccc(O)cc1 [4-Hydroxybenzoic] | tacky gum | 
4 | COc1ccc(C(=O)O)cc1 [4-Methoxybenzoic] | Oil | 
5 | CC1(C)[C@@H](C(=O)O)CC[C@@]1(C)C(=O)O [(1 R,3S)-(+)-Camphoric] | oil | 
6 | CC1(C)[C@@H]2CC[C@@]1(CS(=O)(=O)O)C(=O)C2 [(1 S)-(+)-1 O-Camphorsulfonic] | oil | 
7 | C(=C\[C@H]1CCNC1)/c1cncc(OC2CCOCC2)c1.O=C(O)C[C@H](O)C(=O)O [(R)-3-((E)-2-(pyrrolidin-3-yl)vinyl)-5-(tetrahydropyran-4-yloxy)pyridine mono-L-malate] | Crystals | 
8 | O=C(O)CCCCC(=O)O [Adipic] | oil | 
9 | O=C(O)CC(O)(CC(=O)O)C(=O)O [Citric] | tacky gum | 
10 | C(=C\[C@H]1CCNC1)/c1cncc(OC2CCOCC2)c1 [Compound A, (R)-3-((E)-2-(pyrrolidin-3-yl)vinyl)-5-(tetrahydropyran-4-yloxy)pyridine] |  | NOR time after dosing with statistically significant effect (out to / up to) (normal rats): ≤ 8 h; NOR time after dosing with statistically significant effect (out to / up to) (normal rats; listed as (R)-3-((E)-2-(pyrrolidin-3-yl)vinyl)-5-(tetrahydropyran-4-yloxy)pyridine): up to 8 h; NOR time after dosing with statistically significant effect (out to / up to) (normal rats; listed as Formula I): ≤ 8 h; NOR doses with statistically significant effect (as low as) (normal rats; FIG. 1): ≥ 0.004 µM/kg; NOR minimum effect dose (MED) level (normal rats; follow-up NOR study, oral, rats): 0.004 µmol/kg; NOR recognition index, recall only sessions (normal rats; single oral administration on day 3, 1.1 μmol/kg or 0.04 μmol/kg): recognition indexes significantly above controls; variation of metabolism due to CYP polymorphism [1]: less than 2 fold; renal clearance contribution to total clearance ([1]; human): more than 50%; Multiple receptor screening assay, receptors hit (panel of 65 receptors): only to neuronal nicotinic receptors; Multiple receptor screening assay, receptors hit (panel of 65 receptors; listed as (R)-3-(2-(pyrrolidin-3-yl)vinyl)-5-((tetrahydro-2H-pyran-4-yl)oxy)pyridine): Only nicotinic
11 | O=C[C@H](O)[C@@H](O)[C@H](O)[C@H](O)C(=O)O [D-glucuronic] | brown gum | 
12 | Cl [Hydrochloric] | red oil | 
13 | O=C(O)/C=C\C(=O)O [Maleic] | Oil | 
14 | O=C(O)CC(=O)O [Malonic] | Oil | 
15 | CS(=O)(=O)O [Methanesulfonic] | Oil | 
16 | O=C(O)CCC(=O)O [Succinic] | red oil | 
17 | Cc1ccc(S(=O)(=O)O)cc1.O [p-Toluenesulfonic.H20] | Oil | 
18 | Fumaric | oil | 
19 | L-Tartaric | Oil | 
